The results in this text go back to US12540131B2 (Merck Sharp & Dohme LLC, priority 2019, dated 2026).

SMILES strings stand for the structures. Some results are limits rather than exact numbers.

The first test deals with GST tagged truncated human mutant G2019S LRRK2 (Homo sapiens (Human), UniProt Q5S007, G2019S). The experiment in a line: LRRK2 Km ATP LanthaScreen Assay. Type of test: biochemical. Particulars: G2019S LRRK2, 134 μM ATP (Km ATP), mean values. The method, boiled down: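 Enzyme (GST-tagged, truncated) was preincubated with compound for 15 min at RT in 50 mM Tris pH 8.5, 10 mM MgCl2, 0.01% Brij-35, 1 mM EGTA, 2 mM DTT and 0.05 mM orthovanadate. Fluorescein-LRRKtide and 134 μM ATP (Km) were then added for 90 min. EDTA and Tb-anti-pERM antibody stopped the reaction; the TR-FRET 520/495 ratio gave 4-parameter IC50s, reported as mean pIC50.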
Chain of GST tagged truncated human mutant G2019S LRRK2 (Q5S007 970-2527 G2019S): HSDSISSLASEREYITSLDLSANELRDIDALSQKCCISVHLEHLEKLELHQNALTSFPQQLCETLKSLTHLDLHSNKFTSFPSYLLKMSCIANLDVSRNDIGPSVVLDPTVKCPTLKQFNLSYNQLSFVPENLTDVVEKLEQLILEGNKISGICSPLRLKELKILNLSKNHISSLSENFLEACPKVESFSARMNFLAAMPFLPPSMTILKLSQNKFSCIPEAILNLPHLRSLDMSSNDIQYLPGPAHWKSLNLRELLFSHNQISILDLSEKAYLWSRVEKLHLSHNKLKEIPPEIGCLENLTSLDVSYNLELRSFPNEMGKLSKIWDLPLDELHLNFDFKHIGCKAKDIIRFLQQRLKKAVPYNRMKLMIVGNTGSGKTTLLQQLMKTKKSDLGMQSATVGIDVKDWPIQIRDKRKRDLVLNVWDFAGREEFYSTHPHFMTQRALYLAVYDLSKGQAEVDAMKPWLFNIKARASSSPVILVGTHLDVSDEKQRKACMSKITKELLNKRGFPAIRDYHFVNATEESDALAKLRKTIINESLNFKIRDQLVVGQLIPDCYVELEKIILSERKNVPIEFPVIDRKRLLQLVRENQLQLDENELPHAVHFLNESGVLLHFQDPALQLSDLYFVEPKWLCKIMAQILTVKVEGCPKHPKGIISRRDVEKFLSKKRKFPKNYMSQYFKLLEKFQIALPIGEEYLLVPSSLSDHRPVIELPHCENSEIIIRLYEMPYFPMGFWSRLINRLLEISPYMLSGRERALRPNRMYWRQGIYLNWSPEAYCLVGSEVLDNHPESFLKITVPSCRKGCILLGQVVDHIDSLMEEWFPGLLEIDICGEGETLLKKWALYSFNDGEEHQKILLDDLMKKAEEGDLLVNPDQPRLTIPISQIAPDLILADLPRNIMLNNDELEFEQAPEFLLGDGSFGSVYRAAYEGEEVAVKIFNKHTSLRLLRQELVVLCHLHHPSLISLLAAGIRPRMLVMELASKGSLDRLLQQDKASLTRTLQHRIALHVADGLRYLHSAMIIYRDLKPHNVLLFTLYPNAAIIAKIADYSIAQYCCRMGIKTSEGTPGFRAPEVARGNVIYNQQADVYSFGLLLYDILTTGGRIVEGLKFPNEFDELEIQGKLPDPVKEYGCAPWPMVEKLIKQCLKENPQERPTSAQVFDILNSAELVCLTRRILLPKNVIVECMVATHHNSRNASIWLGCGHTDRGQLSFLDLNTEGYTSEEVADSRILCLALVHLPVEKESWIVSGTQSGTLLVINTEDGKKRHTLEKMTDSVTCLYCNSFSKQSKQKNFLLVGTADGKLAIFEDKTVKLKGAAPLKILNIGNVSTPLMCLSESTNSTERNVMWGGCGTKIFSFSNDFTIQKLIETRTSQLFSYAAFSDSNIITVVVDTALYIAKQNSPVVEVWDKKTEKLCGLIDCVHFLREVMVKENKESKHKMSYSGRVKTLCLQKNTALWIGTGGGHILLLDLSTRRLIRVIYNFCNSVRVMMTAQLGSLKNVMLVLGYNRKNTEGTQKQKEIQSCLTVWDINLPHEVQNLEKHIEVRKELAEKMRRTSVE
A general note: Time-resolved FRET reads energy transfer from a long-lived donor to a nearby acceptor.
On to `Cc1c(Nc2ncc3cc(Cl)c([C@@H]4CCN([C@H]5COC[C@H]5O)C[C@H]4F)cc3n2)cnn1C1CC1(F)F` (single isomer, unassigned) [Ex-4.180, (R)(3S,4S)(3S,4S) or (R)(3S,4S)(3R,4R) or (R)(3R,4R)(3S,4S) or (R)(3R,4R)(3R,4R) or (S)(3S,4S)(3S,4S) or (S)(3S,4S)(3R,4R) or (S)(3R,4R)(3S,4S) or (S)(3R,4R)(3R,4R) 4-(4-(6-chloro-2-((1-(2,2-difluorocyclopropyl)-5-methyl-1H-pyrazol-4-yl)amino)quinazolin-7-yl)-3-fluoropiperidin-1-yl)tetrahydrofuran-3-olyl]amino}quinazolin-7-yl)-3-fluoropiperidin-1-yl]oxolan-3-ol], for which the “LRRK2 pIC50” value was over 9.20.

Consider `Cc1c(Nc2ncc3cc(Cl)c([C@@H]4CCN([C@@H]5COC[C@@H]5O)C[C@H]4F)cc3n2)cnn1C1CC1(F)F` (single isomer, unassigned) [Ex-4.181, (R)(3S,4S)(3S,4S) or (R)(3S,4S)(3R,4R) or (R)(3R,4R)(3S,4S) or (R)(3R,4R)(3R,4R) or (S)(3S,4S)(3S,4S) or (S)(3S,4S)(3R,4R) or (S)(3R,4R)(3S,4S) or (S)(3R,4R)(3R,4R) 4-(4-(6-chloro-2-((1-(2,2-difluorocyclopropyl)-5-methyl-1H-pyrazol-4-yl)amino)quinazolin-7-yl)-3-fluoropiperidin-1-yl)tetrahydrofuran-3-olyl]amino}quinazolin-7-yl)-3-fluoropiperidin-1-yl]oxolan-3-ol], for which the “LRRK2 pIC50” value was over 9.20.

`Cc1c(Nc2ncc3cc(Cl)c(C4CCN([C@@H]5COC[C@@H]5O)CC4)cc3n2)cnn1C1CC1(F)F` (single isomer, unassigned) [Ex-4.182, (R)(3S,4S) or (S)(3S,4S) or (R)(3R,4R) or (S)(3R,4R) 4-[4-(6-chloro-2-{[1-(2,2-difluorocyclopropyl)-5-methyl-1H-pyrazol-4-yl]amino}quinazolin-7-yl)piperidin-1-yl]oxolan-3-ol]: the “LRRK2 pIC50” value was over 9.20.

For the compound `Cc1c(Nc2ncc3cc(Cl)c(C4CCN([C@H]5COC[C@H]5O)CC4)cc3n2)cnn1C1CC1(F)F` (single isomer, unassigned) [Ex-4.183, (R)(3S,4S) or (S)(3S,4S) or (R)(3R,4R) or (S)(3R,4R) 4-[4-(6-chloro-2-{[1-(2,2-difluorocyclopropyl)-5-methyl-1H-pyrazol-4-yl]amino}quinazolin-7-yl)piperidin-1-yl]oxolan-3-ol], the “LRRK2 pIC50” value is over 9.20.

As to `O[C@@H]1COCC1N1CC[C@H](c2cc3nc(Nc4cnn(C5CC5(F)F)c4Cl)ncc3cc2Cl)[C@@H](F)C1` (single isomer, unassigned) [Ex-4.184, (R)(3S,4S)(3S,4S) or (R)(3S,4S)(3R,4R) or (R)(3R,4R)(3S,4S) or (R)(3R,4R)(3R,4R) or (S)(3S,4S)(3S,4S) or (S)(3S,4S)(3R,4R) or (S)(3R,4R)(3S,4S) or (S)(3R,4R)(3R,4R) 4-(6-chloro-2-{[5-chloro-1-(2,2-difluorocyclopropyl)-1H-pyrazol-4-yl]amino}quinazolin-7-yl)-3-fluoropiperidin-1-yl]oxolan-3-ol], the “LRRK2 pIC50” value was over 9.20.

For the compound `Cn1ncc(Nc2ncc3cc(Cl)c([C@@H]4CCN([C@H]5COC[C@H]5O)C[C@H]4F)cc3n2)c1Cl` (single isomer, unassigned) [Ex-4.185, (3S,4S)(3S,4S) or (3S,4S)(3R,4R) or (3R,4R)(3S,4S) or (3R,4R)(3R,4R) 4-(4-{6-chloro-2-[(5-chloro-1-methyl-1H-pyrazol-4-yl)amino]quinazolin-7-yl}-3-fluoropiperidin-1-yl)oxolan-3-ol], the “LRRK2 pIC50” value amounted to 9.17.

Turning to `Cn1ncc(Nc2ncc3cc(Cl)c([C@@H]4CCN([C@@H]5COC[C@@H]5O)C[C@H]4F)cc3n2)c1Cl` (single isomer, unassigned) [Ex-4.186, (3S,4S)(3S,4S) or (3S,4S)(3R,4R) or (3R,4R)(3S,4S) or (3R,4R)(3R,4R) 4-(4-{6-chloro-2-[(5-chloro-1-methyl-1H-pyrazol-4-yl)amino]quinazolin-7-yl}-3-fluoropiperidin-1-yl)oxolan-3-ol], the “LRRK2 pIC50” value came out at 7.95.

On to `Cc1c(Nc2ncc3cc(Cl)c(C4CCN(C(=O)[C@@H](C)O)C4)cc3n2)cnn1C1CC1` (single isomer, unassigned) [Ex-4.187, (2R)(3S) or (2R)(3R) 1-(3-{6-chloro-2-[(1-cyclopropyl-5-methyl-1H-pyrazol-4-yl)amino]quinazolin-7-yl}pyrrolidin-1-yl)-2-hydroxypropan-1-one], for which the “LRRK2 pIC50” value amounted to 8.54.

Take `Cn1ncc(Nc2ncc3cc(Cl)c([C@H]4CCN([C@H]5COC[C@H]5O)C[C@@H]4F)cc3n2)c1Cl` (single isomer, unassigned) [Ex-4.188, (3S,4S)(3S,4S) or (3S,4S)(3R,4R) or (3R,4R)(3S,4S) or (3R,4R)(3R,4R) 4-(4-{6-chloro-2-[(5-chloro-1-methyl-1H-pyrazol-4-yl)amino]quinazolin-7-yl}-3-fluoropiperidin-1-yl)oxolan-3-ol]: the “LRRK2 pIC50” value is on record as 7.83.

Regarding `Cn1ncc(Nc2ncc3cc(Cl)c([C@H]4CCN([C@@H]5COC[C@@H]5O)C[C@@H]4F)cc3n2)c1Cl` (single isomer, unassigned) [Ex-4.189, (3S,4S)(3S,4S) or (3S,4S)(3R,4R) or (3R,4R)(3S,4S) or (3R,4R)(3R,4R) 4-(4-{6-chloro-2-[(5-chloro-1-methyl-1H-pyrazol-4-yl)amino]quinazolin-7-yl}-3-fluoropiperidin-1-yl)oxolan-3-ol], the “LRRK2 pIC50” value was over 9.20.

Turning to `Cc1c(Nc2ncc3cc(Cl)c(C4CCN(C(=O)[C@H](C)O)C4)cc3n2)cnn1C1CC1` (single isomer, unassigned) [Ex-4.190, (2S)(3S) or (2S)(3R) 1-(3-{6-chloro-2-[(1-cyclopropyl-5-methyl-1H-pyrazol-4-yl)amino]quinazolin-7-yl}pyrrolidin-1-yl)-2-hydroxypropan-1-one], the “LRRK2 pIC50” value was determined as 8.73.

The same test, now with this note: G2019S LRRK2, 134 μM ATP (Km ATP), mean values; read-out: LRRK2 pIC50 (converted).
On to `Cc1c(Nc2ncc3cc(Cl)c(C4CCN(CC(O)CC(F)(F)F)CC4)cc3n2)cnn1C1CC1` (single isomer, unassigned) [Ex-4.191, (S) or (R) 1-(4-{6-chloro-2-[(1-cyclopropyl-5-methyl-1H-pyrazol-4-yl)amino]quinazolin-7-yl}piperidin-1-yl)-4,4,4-trifluorobutan-2-ol], for which the IC50 is under 0.631 nM.

Take `Cc1c(Nc2ncc3cc(Cl)c(C4CCN(CC(O)CC(F)(F)F)CC4)cc3n2)cnn1C1CC1` (single isomer, unassigned) [Ex-4.192, (S) or (R) 1-(4-{6-chloro-2-[(1-cyclopropyl-5-methyl-1H-pyrazol-4-yl)amino]quinazolin-7-yl}piperidin-1-yl)-4,4,4-trifluorobutan-2-ol]: the IC50 was 1.74 nM.

With `Cc1c(Nc2ncc3cc(Cl)c(C4CCN(CC(O)Cc5ccccc5)CC4)cc3n2)cnn1C1CC1` (single isomer, unassigned) [Ex-4.218, (S) or (R) 1-(4-{6-chloro-2-[(1-cyclopropyl-5-methyl-1H-pyrazol-4-yl)amino]quinazolin-7-yl}piperidin-1-yl)-3-phenylpropan-2-ol], the IC50 was 13.8 nM.

As to `Cc1c(Nc2ncc3cc(Cl)c(C4CCN(CC(O)Cc5ccccc5)CC4)cc3n2)cnn1C1CC1` (single isomer, unassigned) [Ex-4.219, (S) or (R) 1-(4-{6-chloro-2-[(1-cyclopropyl-5-methyl-1H-pyrazol-4-yl)amino]quinazolin-7-yl}piperidin-1-yl)-3-phenylpropan-2-ol], the IC50 was 4.68 nM.

Take `Cc1c(Nc2ncc3cc(Cl)c(C4CCN(CC(O)c5ccc(C#N)cc5)CC4)cc3n2)cnn1C1CC1` (single isomer, unassigned) [Ex-4.220, (S) or (R) 4-[2-(4-{6-chloro-2-[(1-cyclopropyl-5-methyl-1H-pyrazol-4-yl)amino]quinazolin-7-yl}piperidin-1-yl)-1-hydroxyethyl]benzonitrile]: the IC50 is 6.17 nM.

With `Cc1c(Nc2ncc3cc(Cl)c(C4CCN(CC(O)CN5CCOC5=O)CC4)cc3n2)cnn1C1CC1` (single isomer, unassigned) [Ex-4.221, (S) or (R) 3-[3-(4-{6-chloro-2-[(1-cyclopropyl-5-methyl-1H-pyrazol-4-yl)amino]quinazolin-7-yl}piperidin-1-yl)-2-hydroxypropyl]-1,3-oxazolidin-2-one], the IC50 was under 0.631 nM.

Turning to `Cc1c(Nc2ncc3cc(Cl)c(C4CCN(CC(C)(O)c5ccccc5)CC4)cc3n2)cnn1C1CC1` (single isomer, unassigned) [Ex-4.223, (S) or (R) 1-(4-{6-chloro-2-[(1-cyclopropyl-5-methyl-1H-pyrazol-4-yl)amino]quinazolin-7-yl}piperidin-1-yl)-2-phenylpropan-2-ol], the IC50 was 2.45 nM.

As for `Cc1c(Nc2ncc3cc(Cl)c(C4CCN(CC(O)c5ccc(Cl)cc5)CC4)cc3n2)cnn1C1CC1` (single isomer, unassigned) [Ex-4.224, (S) or (R) 2-(4-{6-chloro-2-[(1-cyclopropyl-5-methyl-1H-pyrazol-4-yl)amino]quinazolin-7-yl}piperidin-1-yl)-1-(4-chlorophenyl)ethan-1-ol], the IC50 was 13.8 nM.

In the case of `Cc1c(Nc2ncc3cc(Cl)c(C4CCN(CC(O)c5ccc(Cl)cc5)CC4)cc3n2)cnn1C1CC1` (single isomer, unassigned) [Ex-4.225, (S) or (R) 2-(4-{6-chloro-2-[(1-cyclopropyl-5-methyl-1H-pyrazol-4-yl)amino]quinazolin-7-yl}piperidin-1-yl)-1-(4-chlorophenyl)ethan-1-ol], the IC50 is 21.4 nM.
